Holding throughout (format): cell-based
The subject of one assay is TNF-α. The assay is described as follows: TNF-α inhibition in LPS-stimulated PBMC cells (ELISA). Particulars: LPS 1 µg/ml, 18-20 h. An excerpt: (§1) The tested cell line used were: Multiple myeloma cell line MM.1S, Mino (human mantle cell lymphoma cell), SR (anaplastic large cell lymphoma cell), PBMC (peripheral blood mononuclear cell), which were purchased from ATCC (American type Culture Collection). The medium was RPMI1640 supplemented with 10% FBS (fetal calf serum) and 1% Penicillin-Streptomycin. The cells used were identified as correct cells by STR cells, and were negative for mycoplasma through routine inspections.
PBMC cells were cultured at 37° C. in 5% CO2 atmosphere, and then seeded in 96-well plates at 1×10^6 cells/well. […] Cells were pretreated with compounds and vehicle control (DMSO) for 1 h, then stimulated with lipopolysaccharide (LPS; 1 µg/ml), and continually cultured for 18-20 h. Then, the supernatant was collected, and tested for TNF-α level by ELISA kit. IC50 was then calculated by Graphpad Prism 7.0.

Assay [1] concerns Mino (human mantle cell lymphoma cell). The assay is described as follows: Cell viability / proliferation inhibition IC50 in Mino lymphoma cells, 72 h, WST. Particulars: Mino cell line, WST reagent.
From the text: as §1
(§2) IC50 values of the compounds of the present disclosure (including examples 1-11 compounds) were measured using Cell Titer Blue, Cell Titer GLO, or WST reagent from Promega Company. Assay details are as follows: Cells were seeded in 100 µL RPMI1640 complete medium containing serum at a density of 15,000 cells/well. After 24 h, the inoculated cells were treated with diluted commercial inhibitor and the compounds of the present disclosure to be tested after serial dilution. After the cells were treated with the compounds of the present disclosure to be tested (including examples 1-11 compounds) for 72 h, cell viability was determined after adding the cell viability detection kit listed above according to the reagent operating instructions. The negative control was DMSO, and the positive control was a commercial inhibitor, both of which were used to treat the cells through the same method as that of the compounds of the present disclosure. The growth inhibition of the compounds of the present disclosure on cells was plotted by Prism Graphpad software, and the IC50 values of the compounds of the present disclosure were calculated therefrom.
(§3) We tested the activities of the compounds of the present invention (including the compounds in Table 1 and Examples 1-11 compounds) in MM.1S cell, mantle cell lymphoma Mino cells, and anaplastic large cell lymphoma SR cells through a dose-dependent manner. These cells overexpressed IKZF⅓ and was not sensitive to existing immunomodulatory drugs. The cells were treated with the compounds of the present invention at 10 different successively decreasing concentrations (starting at the highest concentration of 10 µM; 5-fold serial dilutions) for 72 h, and then the cell viability determination was performed in accordance with CCK-8 reagent operating instructions. The experiment was repeated more than three times.

Assay [2] relates to Multiple myeloma cell line MM.1S. The assay is described as follows: Cell viability / proliferation inhibition IC50 in MM.1S cells, 72 h. Particulars: Homo sapiens, MM1.S, 72 h treatment.
From the text: as §1, §2, §3

Assay [3] has as its system SR (anaplastic large cell lymphoma cell). In words: Cell viability / proliferation inhibition IC50 in SR lymphoma cells, 72 h, WST. The conditions noted are these: SR cell line, WST reagent.
From the text: as §1, §2
We tested the activities of the compounds of the present invention (including the compounds in Table 1 and Examples 1-11 compounds) in MM.1S cell, mantle cell lymphoma Mino cells, and anaplastic large cell lymphoma SR cells through a dose-dependent manner. These cells overexpressed IKZF⅓ and was not sensitive to existing immunomodulatory drugs. […]

The target of another assay is T1, IKZF3 (Homo sapiens, UniProt Q96SW2+Q9UKT9).
T1 construct: degradation of IKZF1 and IKZF3 proteins caused by the compounds of the present invention in multiple myeloma cells MM.1S; endogenous in cells; host or cells: MM.1S (ATCC)
T1 sequence (Q9UKT9 whole entry): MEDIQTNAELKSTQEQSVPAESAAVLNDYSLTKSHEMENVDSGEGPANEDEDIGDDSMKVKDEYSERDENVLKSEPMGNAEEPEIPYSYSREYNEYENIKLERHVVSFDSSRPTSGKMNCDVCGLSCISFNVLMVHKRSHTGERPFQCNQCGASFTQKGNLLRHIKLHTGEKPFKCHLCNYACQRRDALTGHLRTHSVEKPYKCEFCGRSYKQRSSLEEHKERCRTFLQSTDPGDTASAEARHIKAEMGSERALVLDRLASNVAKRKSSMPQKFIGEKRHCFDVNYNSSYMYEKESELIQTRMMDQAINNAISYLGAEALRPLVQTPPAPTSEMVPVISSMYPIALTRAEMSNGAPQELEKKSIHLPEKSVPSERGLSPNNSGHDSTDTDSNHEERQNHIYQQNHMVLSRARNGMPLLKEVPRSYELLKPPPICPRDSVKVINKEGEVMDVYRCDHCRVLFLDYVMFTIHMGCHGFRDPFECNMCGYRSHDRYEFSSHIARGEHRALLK
T1 sequence (Q96SW2 whole entry): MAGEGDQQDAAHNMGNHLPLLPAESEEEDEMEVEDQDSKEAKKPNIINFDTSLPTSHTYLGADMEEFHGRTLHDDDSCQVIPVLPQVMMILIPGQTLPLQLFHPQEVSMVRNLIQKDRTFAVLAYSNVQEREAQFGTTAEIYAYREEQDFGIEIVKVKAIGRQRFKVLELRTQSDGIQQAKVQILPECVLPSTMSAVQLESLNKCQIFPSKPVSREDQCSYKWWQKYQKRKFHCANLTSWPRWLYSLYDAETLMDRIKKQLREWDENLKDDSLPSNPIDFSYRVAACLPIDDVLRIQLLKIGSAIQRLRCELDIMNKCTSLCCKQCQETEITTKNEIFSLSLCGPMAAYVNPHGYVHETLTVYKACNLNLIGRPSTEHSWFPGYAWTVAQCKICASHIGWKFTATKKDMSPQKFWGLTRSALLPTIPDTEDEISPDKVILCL
T1 sequence (Q16531 whole entry partner): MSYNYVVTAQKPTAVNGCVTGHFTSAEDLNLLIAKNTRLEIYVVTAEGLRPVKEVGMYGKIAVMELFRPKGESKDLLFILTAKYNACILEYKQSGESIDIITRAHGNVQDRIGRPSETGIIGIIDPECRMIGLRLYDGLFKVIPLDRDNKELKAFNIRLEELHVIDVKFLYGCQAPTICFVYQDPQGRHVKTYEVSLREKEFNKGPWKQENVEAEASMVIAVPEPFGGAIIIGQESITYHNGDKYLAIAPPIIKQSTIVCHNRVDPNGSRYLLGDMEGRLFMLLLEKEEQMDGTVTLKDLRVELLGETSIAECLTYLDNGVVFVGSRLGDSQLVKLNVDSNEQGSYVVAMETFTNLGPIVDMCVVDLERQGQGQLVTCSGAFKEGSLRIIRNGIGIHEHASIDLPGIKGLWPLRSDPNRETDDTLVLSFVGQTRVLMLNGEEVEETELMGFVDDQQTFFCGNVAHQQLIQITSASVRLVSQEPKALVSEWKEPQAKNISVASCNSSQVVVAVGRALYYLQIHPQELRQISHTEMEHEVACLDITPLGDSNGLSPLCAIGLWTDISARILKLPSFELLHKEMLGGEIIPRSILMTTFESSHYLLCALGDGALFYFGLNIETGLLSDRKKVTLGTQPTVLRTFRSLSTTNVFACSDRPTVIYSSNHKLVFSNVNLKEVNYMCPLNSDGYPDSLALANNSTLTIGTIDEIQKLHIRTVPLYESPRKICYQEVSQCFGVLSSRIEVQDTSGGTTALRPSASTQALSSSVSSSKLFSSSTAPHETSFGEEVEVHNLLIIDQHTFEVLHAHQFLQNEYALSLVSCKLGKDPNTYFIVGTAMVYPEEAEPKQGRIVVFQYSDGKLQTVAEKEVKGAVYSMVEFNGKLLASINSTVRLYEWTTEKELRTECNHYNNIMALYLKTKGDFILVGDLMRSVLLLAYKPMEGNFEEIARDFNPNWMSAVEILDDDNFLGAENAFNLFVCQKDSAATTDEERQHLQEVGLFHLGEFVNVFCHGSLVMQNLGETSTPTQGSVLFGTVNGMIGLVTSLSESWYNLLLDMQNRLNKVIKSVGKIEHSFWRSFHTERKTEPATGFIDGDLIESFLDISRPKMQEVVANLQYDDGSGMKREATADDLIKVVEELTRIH
The assay is described as follows: Western blotting assay of IKZF3 degradation in MM.1S cells. Particulars: 16 h, Western blot, FIG. 1. The procedure: Most antibodies were purchased from Cell Signaling Technology, including IKZF1 (#9034S), IKZF3(#15103S). GAPDH antibody was purchased from Abcam Company.
Tumor cells were plated in a 24-well plate at a cell seeding density of 3×10^5 cells/mL, with 1 mL culture media per well. After 24 h, the cells were treated with different concentrations of the compounds of the present disclosure. After 16 hours, the cells were collected, and washed with PBS. The supernatant was discarded, and the cells were placed on ice, and treated with RIPA protein lysate containing Halt protease and phosphatase inhibitor. The lysate was centrifuged at 10000 RPM at 4° C. for 10 minutes, and the supernatant was collected. An equal amount of proteins were loaded in 4X SDS sample solution, denatured at 95° C. for 5 minutes, and then freezed to -20° C. or directly subjected to protein electrophoresis (4-15% gradient gel, Bio-rad). […]
DC50 value (the drug concentration required for degrading proteins by 50%, abbreviated as DC50) reads method: comparing the gray values of the Western blotting bands for the drug treatment with the gray values of the Western blotting band for the DMSO control, and reading the drug concentration range corresponding to the gray value of the Western blotting bands for the drug treatment which is equal to half of the gray value of the Western blotting band for the DMSO control. […]

Consider twelve compounds from patent publication US20230203022A1, “HETEROCYCLE AND GLUTARIMIDE SKELETON-BASED COMPOUND AND APPLICATIONS THEREOF” (Shanghaitech University, priority 2020, published 2023).

Take `Nc1cccc2c1CN(C1CCC(=O)NC1=O)C2=O` (centres unmarked) [Lenalidomide, reference compound]: in the assay with TNF-α, the IC50 lay in the range of 10 to 100 nM.
Take `Nc1cccc2c1C(=O)N(C1CCC(=O)NC1=O)C2=O` (centres unmarked) [Pomalidomide, reference compound]: 48 nM corresponded to half-maximal inhibition in assay [1] (Homo sapiens, MINO) (IC50).
As for `O=C1CCC(N2Cc3c(SCCn4cc(CN[C@]56CC7CC(C[C@@H](C7)C5)C6)nn4)cccc3C2=O)C(=O)N1` (some centres unmarked) [SIAIS287097, 3-(4-((2-(4-((adamantan-1-ylamino)methyl)-1H-1,2,3-triazol-1-yl)ethyl)thio)-1-oxoisoindolin-2-yl)piperidine-2,6-dione], the IC50 in the assay on TNF-α was under 5 nM.
`O=C1CCC(N2Cc3c(SCc4cc5cc(CNC67CC8CC(CC(C8)C6)C7)ccc5o4)cccc3C2=O)C(=O)N1` (centres unmarked) [SIAIS287116, 3-(4-(((5-((adamantan-1-ylamino)methyl)benzofuran-2-yl)methyl)thio)-1-oxoisoindolin-2-yl)piperidine-2,6-dione]: the IC50 is 0.003 nM in assay [2]; about 0.5 nM in assay [3] (Homo sapiens, SR); 0.454 nM in assay [3]; about 0.39 nM in assay [1] (Homo sapiens, MINO); 0.387 nM in assay [1]; under 1 nM in the assay with TNF-α. For the same compound, the “concentration at which IKZF3 protein is significantly degraded” value at IKZF3 is on record as “less than 0.01 nM”.
Consider `O=C1CCC(N2Cc3c(SCc4nc(CNC56CC7CC(CC(C7)C5)C6)cs4)cccc3C2=O)C(=O)N1` (centres unmarked) [SIAIS287129, 3-(4-(((4-((adamantan-1-ylamino)methyl)thiazol-2-yl)methyl)thio)-1-oxoisoindolin-2-yl)piperidine-2,6-dione], for which the IC50 in assay [2] amounted to 0.181 nM; in assay [3] (Homo sapiens, SR), 4.02 nM; in assay [1] (Homo sapiens, MINO) it was 2.59 nM.
On to `O=C1CCC(N2Cc3c(SCc4ccc(CNC56CC7CC(CC(C7)C5)C6)o4)cccc3C2=O)C(=O)N1` (centres unmarked) [SIAIS313118, 3-(4-(((5-((adamantan-1-ylamino)methyl)furan-2-yl)methyl)thio)-1-oxoisoindolin-2-yl)piperidine-2,6-dione], for which, in assay [2], the IC50 was found to be 0.09 ± 0.02 nM.
Regarding `O=C1CCC(N2Cc3c(SCc4csc(CNC56CC7CC(CC(C7)C5)C6)n4)cccc3C2=O)C(=O)N1` (centres unmarked) [SIAIS313160, 3-(4-(((2-((adamantan-1-ylamino)methyl)thiazol-4-yl)methyl)thio)-1-oxoisoindolin-2-yl)piperidine-2,6-dione], the IC50 in assay [2] is 0.13 ± 0.03 nM; in the assay on TNF-α, under 1 nM.
`O=C1CCC(N2Cc3c(SCc4nc(CN[C@H]5[C@H]6CC7CC(C6)C[C@@H]5C7)cs4)cccc3C2=O)C(=O)N1` (some centres unmarked) [SIAIS313185, 3-(4-(((4-((adamantan-2-ylamino)methyl)thiazol-2-yl)methyl)thio)-1-oxoisoindolin-2-yl)piperidine-2,6-dione] showed an IC50 in assay [2] of 0.16 ± 0.02 nM.
Same read-out and setting: then `O=C1CCC(N2Cc3c(SCc4ccc5cc(CN[C@]67CC8CC(C[C@@H](C8)C6)C7)ccc5n4)cccc3C2=O)C(=O)N1` (some centres unmarked) [SIAIS338048, 3-(4-(((6-((adamantan-1-ylamino)methyl)quinolin-2-yl)methyl)thio)-1-oxoisoindolin-2-yl)piperidine-2,6-dione], with 0.06 ± 0.04 nM.
For `O=C1CCC(N2Cc3c(SCc4cc5cc(C(=O)NC67CC8CC(CC(C8)C6)C7)ccc5s4)cccc3C2=O)C(=O)N1` (centres unmarked) [SIAIS338091, N-(adamantan-1-yl)-2-(((2-(2,6-dioxopiperidin-3-yl)-1-oxoisoindolin-4-yl)thio)methyl)benzo[b]thiophene-5-carboxamide], the IC50 in assay [2] was 0.02 nM; in the assay on TNF-α it was under 1 nM.
For `O=C1CCC(N2C(=O)c3cccc(NCc4ccc(CNC56CC7CC(CC(C7)C5)C6)cn4)c3C2=O)C(=O)N1` (centres unmarked) [SIAIS355067, 4-(((5-((adamantan-1-ylamino)methyl)pyridin-2-yl)methyl)amino)-2-(2,6-dioxopiperidin-3-yl)isoindoline-1,3-dione], the IC50 is 4.46 ± 0.18 nM in assay [2] and under 5 nM in the assay on TNF-α.
On to `O=C1CCC(N2Cc3c(SCc4csc(C(=O)NC56CC7CC(CC5C7)C6)n4)cccc3C2=O)C(=O)N1` (centres unmarked) [SIAIS355073, 4-(((2-(2,6-dioxopiperidin-3-yl)-1-oxoisoindolin-4-yl)thio)methyl)-N-(octahydro-2,5-methanopentalen-6a-yl)thiazole-2-carboxamide], for which the IC50 in assay [2] was found to be 0.51 ± 0.25 nM.
